Results from patent publication US20240174639A1, “PYRIDINE DERIVATIVES USEFUL AS HCN2 MODULATORS” (King's College London, priority 2021, published 2024).
Structures can show the parent of a compound that is named as a salt.

How the values were obtained:
Type in all cases: cell-based
HCN2 [1] = biological target: T1, HCN2 (Homo sapiens, UniProt Q9UL51); test: HCN2 assay using the Sophion Qube (Example 50B); details: Sophion Qube protocol (SQ)
T1 sequence (Q9UL51 1-889): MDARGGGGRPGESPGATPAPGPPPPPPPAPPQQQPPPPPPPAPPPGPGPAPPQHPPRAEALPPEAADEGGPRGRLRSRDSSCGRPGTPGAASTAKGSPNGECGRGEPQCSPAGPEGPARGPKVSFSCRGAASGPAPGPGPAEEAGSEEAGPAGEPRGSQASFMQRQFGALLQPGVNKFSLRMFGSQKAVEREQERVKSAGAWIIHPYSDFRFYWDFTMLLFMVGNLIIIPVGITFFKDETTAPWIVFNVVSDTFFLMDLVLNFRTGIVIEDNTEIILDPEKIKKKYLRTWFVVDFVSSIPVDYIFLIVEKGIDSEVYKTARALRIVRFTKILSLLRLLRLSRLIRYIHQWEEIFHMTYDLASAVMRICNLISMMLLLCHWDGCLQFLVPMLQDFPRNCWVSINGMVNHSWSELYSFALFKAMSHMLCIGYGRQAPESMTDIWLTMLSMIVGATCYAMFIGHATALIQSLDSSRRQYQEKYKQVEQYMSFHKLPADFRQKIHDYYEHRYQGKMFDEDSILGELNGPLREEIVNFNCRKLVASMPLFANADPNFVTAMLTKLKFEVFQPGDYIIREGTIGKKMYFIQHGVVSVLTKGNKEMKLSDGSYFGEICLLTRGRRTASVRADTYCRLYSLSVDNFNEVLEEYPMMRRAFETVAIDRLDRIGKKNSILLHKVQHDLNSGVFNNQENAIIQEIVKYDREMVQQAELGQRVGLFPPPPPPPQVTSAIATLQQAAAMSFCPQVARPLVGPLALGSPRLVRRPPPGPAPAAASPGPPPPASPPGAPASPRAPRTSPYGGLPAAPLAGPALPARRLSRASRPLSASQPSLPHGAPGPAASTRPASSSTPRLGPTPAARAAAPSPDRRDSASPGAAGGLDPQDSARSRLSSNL
Protocol: Solutions for recording HCN currents were:
For HCN1 and HCN2 the cells were held at −30 mV and then stepped to −110 mV for 2 seconds before stepping back to −30 mV, this represents 1 experimental sweep. This voltage protocol was applied every 20 seconds for the duration of the experiment. Both the vehicle (0.3% DMSO) and full block (3 mM CsCl) addition periods were applied for 10 experimental sweeps each. The compound addition period was applied for 30 sweeps.
The currents evoked by the step to −110 mV (HCN1 and HCN2) or −130 mV (HCN4) were measured for the analysis of the percentage inhibition by test compounds. The current amplitudes were measured by subtracting metric A from metric B (see FIG. 2) with inhibition calculated by normalising to the vehicle addition (0.3% DMSO) and full inhibition by 3 mM CsCl in the same well.
In total, compound was applied to the well for 600 seconds.

HCN4 [2] = biological target: T2, HCN4 (Homo sapiens, UniProt Q9Y3Q4); test: HCN4 assay using the Sophion Qube (Example 50B); details: Sophion Qube protocol (SQ)
T2 sequence (Q9Y3Q4 1-1203): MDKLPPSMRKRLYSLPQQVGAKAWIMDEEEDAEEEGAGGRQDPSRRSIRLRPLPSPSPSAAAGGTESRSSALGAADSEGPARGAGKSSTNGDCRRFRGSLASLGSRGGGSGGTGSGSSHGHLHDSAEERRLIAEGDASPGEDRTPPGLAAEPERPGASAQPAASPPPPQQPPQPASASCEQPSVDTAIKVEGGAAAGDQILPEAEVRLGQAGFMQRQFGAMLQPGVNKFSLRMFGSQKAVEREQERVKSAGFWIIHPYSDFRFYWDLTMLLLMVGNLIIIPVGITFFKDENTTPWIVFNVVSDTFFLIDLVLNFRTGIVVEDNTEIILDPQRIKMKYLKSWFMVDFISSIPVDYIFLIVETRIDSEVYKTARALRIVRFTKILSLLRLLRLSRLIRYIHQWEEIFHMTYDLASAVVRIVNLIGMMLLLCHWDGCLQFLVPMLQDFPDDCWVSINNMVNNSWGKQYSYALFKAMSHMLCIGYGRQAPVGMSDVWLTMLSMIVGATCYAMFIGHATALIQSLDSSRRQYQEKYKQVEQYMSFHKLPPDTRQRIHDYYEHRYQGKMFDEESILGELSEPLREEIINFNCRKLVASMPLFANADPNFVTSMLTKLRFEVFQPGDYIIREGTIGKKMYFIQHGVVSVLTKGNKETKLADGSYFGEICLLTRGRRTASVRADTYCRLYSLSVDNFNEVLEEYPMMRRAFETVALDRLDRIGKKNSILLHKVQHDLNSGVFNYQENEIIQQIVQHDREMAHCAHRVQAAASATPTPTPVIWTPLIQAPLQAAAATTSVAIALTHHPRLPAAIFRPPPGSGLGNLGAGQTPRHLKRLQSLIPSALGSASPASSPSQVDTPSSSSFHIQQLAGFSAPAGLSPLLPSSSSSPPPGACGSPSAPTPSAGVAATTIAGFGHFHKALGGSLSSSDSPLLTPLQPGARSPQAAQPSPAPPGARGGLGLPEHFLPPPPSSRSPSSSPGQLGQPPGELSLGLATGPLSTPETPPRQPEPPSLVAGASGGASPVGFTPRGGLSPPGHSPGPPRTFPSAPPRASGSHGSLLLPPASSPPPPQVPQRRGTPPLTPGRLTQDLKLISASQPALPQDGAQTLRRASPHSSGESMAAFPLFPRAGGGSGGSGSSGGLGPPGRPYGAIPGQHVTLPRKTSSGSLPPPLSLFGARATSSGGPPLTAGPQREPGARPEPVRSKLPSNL
Protocol: Solutions for recording HCN currents were: [table] For HCN4, the cells were held at −30 mV and then stepped to −130 mV for 4 seconds before stepping back to −30 mV, this represents 1 experimental sweep. This voltage protocol was applied every 20 seconds for the duration of the experiment. Both the vehicle (0.3% DMSO) and full block (3 mM CsCl) addition periods were applied for 10 experimental sweeps each. The compound addition period was applied for 30 sweeps. The currents evoked by the step to −110 mV (HCN1 and HCN2) or −130 mV (HCN4) were measured for the analysis of the percentage inhibition by test compounds. The current amplitudes were measured by subtracting metric A from metric B (see FIG. 2) with inhibition calculated by normalising to the vehicle addition (0.3% DMSO) and full inhibition by 3 mM CsCl in the same well. […] In total, compound was applied to the well for 600 seconds.

HCN2 [3] = biological target: T1, HCN2; test: HCN2 assay using PatchXpress 7000A (Example 50A); details: PatchXpress protocol (PX)
Text: (§1) Solutions for recording HON currents were:
For HCN1 and HCN2, the pulse protocol involved stepping from a holding potential of −30 mV to −110 mV (see FIG. 1A) for 2 seconds to evoke the current. The membrane voltage was then stepped back to −30 mV for a further 8 seconds. This sequence was evoked repeatedly every 10 seconds throughout the experiment, starting prior to drug (Control A) and during cumulative additions of 5 increasing compound concentrations, then finally a 100% inhibiting concentration of cesium chloride (CsCl, 3 mM).
(§2) The peak inward current measured at the end of the pulse to −110 mV (HCN1 and HCN2) or −130 mV (HCN4) was measured and any leak current subtracted to calculate the HCN current. The HCN current amplitude was measured after each control or compound addition and normalized to the control amplitude (Control A).
(§3) All experiments were performed at room temperature (approximately 22° C.).
(§4) Each test compound concentration was applied to the cell for seven (7) minutes, at which point the next cumulative concentration was applied. 3 mM CsCl was applied to each cell for 2 minutes at the end of each experiment (Control B) to determine 100% inhibition level of the HCN current.

HCN4 [4] = biological target: T2, HCN4; test: HCN4 assay using PatchXpress 7000A (Example 50A); details: PatchXpress protocol (PX)
Protocol: as §1
For HCN4, the pulse protocol involved stepping from a holding potential of −30 mV to −130 mV (see FIG. 1B) for 4 seconds to evoke the current.
as §2, §3, §4

## Cc1ccc(F)c(C[C@H](N)c2ncccc2-n2ncc3cc(Cl)ccc32)n1 [Example 44, (S)-1-[3-(5-Chloro-1H-indazole-1-yl)pyridine-2-yl]-2-(3-fluoro-6-methylpyridine-2-yl)-ethan-1-amine hydro-chloride]
HCN2 [1]
  IC50: 1.5 µM

## Cc1ccc(C#N)nc1C[C@H](N)c1ncccc1-n1ncc2cc(Br)ccc21 [Example 36, hydrochloride]
HCN2 [1]
  IC50: 0.77 µM
HCN4 [2]
  IC50: 4.7 µM

## Cc1cccnc1C[C@H](N)c1ncccc1-n1ncc2cc(Br)ccc21 [Example 30, (S)-1-[3-(5-Bromo-1H-indazole-1-yl)pyridine-2-yl]-2-(3-methylpyr-idine-2-yl)ethan-1-amine hydrochloride]
HCN2 [1]
  IC50: 0.9 µM
HCN4 [2]
  IC50: 22.5 µM

## N#Cc1nc(C[C@H](N)c2ncccc2-n2ncc3cc(Br)ccc32)ccc1F [Example 46, (S)-6-{2-Amino-2-[3-(5-bromo-1H-indazol-1-yl)pyridine-2-yl]-ethyl}-3-fluoropyr-idine-2-carbonitrile hydrochloride]
HCN2 [1]
  IC50: 1.2 µM

## N#Cc1ccc(F)c(C[C@H](N)c2ncccc2-n2ncc3cc(Br)ccc32)n1 [Example 43, (S)-6-{2-Amino-2-[3-(5-bromo-1H-indazol-1-yl)pyridine-2-yl-ethyl}-5-fluoropyr-idine-2-carbonitrile hydrochloride]
HCN2 [1]
  IC50: 0.78 µM

## COc1ccc2c(cnn2-c2cccnc2[C@@H](N)Cc2nc(C#N)ccc2F)c1 [Example 37]
HCN2 [1]
  IC50: 6.7 µM

## COc1ccc2c(cnn2-c2cccnc2[C@@H](N)Cc2ncccc2F)c1 [Example 32, (S)-2-(3-fluoropyridine-2-yl)-1-[3-(5-methoxy-1H-indazole-1-yl)-pyridine-2-yl]ethan-1-amine hydrochloride]
HCN2 [1]
  IC50: 28.6 µM

## Cc1ccc(C#N)nc1C[C@H](N)c1cnccc1-n1ncc2cc(Cl)ccc21 [Example 42, (S)-6-{2-Amino-2-[4-(5-chloro-1H-indazol-1-yl)pyridine-3-yl]-ethyl}-5-methylpyr-idine-2-carbonitrile hydrochloride]
HCN2 [1]
  IC50: 4.9 µM

## N[C@@H](Cc1ncccc1F)c1ncccc1-n1ncc2cc(C(F)(F)F)ccc21 [Example 40, (S)-1-[3-(5-Trifluoro-methyl-1H-indazole-1-yl)pyridine-2-yl]-2-(3-fluoropyridine-2-yl)-ethan-1-amine hydro-chloride]
HCN2 [1]
  IC50: 11.7 µM

## Cc1nc(C[C@H](N)c2ncccc2-n2ncc3ccccc32)ccc1F [Example 20, (S)-1-[3-(1H-indazole-1-yl)pyridine-2-yl]-2-(5-fluoro-6-methyl-pyridine-2-yl)ethan-1-amine hydrochloride]
HCN2 [3]
  IC50: 0.9 µM
HCN4 [4]
  IC50: 13 µM

## N[C@@H](Cc1ccccn1)c1ccccc1-n1ncc2cc(Br)ccc21 [Example 1, (S)-1-[2-(5-Bromo-1H-indazol-1-yl)phenyl]-2-(pyridine-2-yl)ethane-1-amine hydrochloride]
HCN2 [3]
  IC50: 0.9 µM
HCN4 [4]
  IC50: 3.4 µM

## Cc1ccc(C#N)nc1C[C@H](N)c1ncccc1-n1ncc2cc(C(F)(F)F)ccc21 [Example 33, (S)-6-{2-Amino-2-[3-(5-trifluoromethyl-1H-indazol-1-yl)pyridine-2-yl]ethyl}-5-methyl-pyridine-2-carbonitrile hydrochloride]
HCN2 [1]
  IC50: 4.9 µM

## CS(=O)(=O)c1ccc(F)c(C[C@H](N)c2ncccc2-n2ncc3ccccc32)n1 [Example 21, (S)-1-[3-(1H-indazole-1-yl)pyridine-2-yl]-2-(3-fluoro-6-methyl-sulfonylpyridine-2-yl)-ethan-1-amine formate]
HCN2 [3]
  IC50: 1.1 µM
HCN4 [4]
  IC50: ≥ 30 µM

## N[C@@H](Cc1cccc(F)n1)c1ncccc1-n1ncc2ccccc21 [Example 17, (S)-1-[3-(1H-indazole-1-yl)pyridine-2-yl]-2-(6-fluoropyridine-2-yl)ethan-1-amine hydrochloride]
HCN2 [3]
  IC50: 3.3 µM
HCN4 [4]
  IC50: 14.7 µM

## CCc1ccc(F)c(C[C@H](N)c2ncccc2-n2ncc3ccccc32)n1 [Example 25, (S)-1-[3-(1H-indazole-1-yl)pyridine-2-yl]-2-(3-fluoro-6-ethylpyr-idine-2-yl)ethan-1-amine hydrochloride]
HCN2 [3]
  IC50: 0.34 µM
HCN4 [4]
  IC50: 1.6 µM

## N#Cc1ccc(F)c(C[C@H](N)c2ncccc2-n2ncc3ccccc32)n1 [Example 23, (S)-6-{2-[3-(1H-ind-azol-1-yl)pyridine-2-yl]-2-aminoethyl}-5-fluoropyridine-2-carbonitrile formate]
HCN2 [3]
  IC50: 0.18 µM
HCN4 [4]
  IC50: 7.5 µM

## Cc1ccc(F)c(C[C@H](N)c2ncccc2-n2ncc3cc(F)ccc32)n1 [Example 34, (S)-1-[3-(5-Fluoro-1H-indazole-1-yl)pyridine-2-yl]-2-(3-fluoro-6-methylpyridine-2-yl)-ethan-1-amine hydro-chloride]
HCN2 [1]
  IC50: 4.5 µM
